This note sets out measurements from patent US20240262835A1, “PRMT5 INHIBITING COMPOUNDS AND USES THEREOF” (ANTENGENE DISCOVERY LIMITED, priority 2023, published 2024).

Read-outs that look alike come from different tables or passages of the source.

Data set [1] addresses PRMT5/MEP50 (Homo sapiens (Human), UniProt O14744). Kind of data set: MTase-Glo methyl transferase assay (PRMT5 inhibition). The class given is biochemical. The note with it: 50 nM PRMT5/MEP50, 25 μM SAM, 5 μM Histone H4 peptide (1-21), read-out: IC50 for PRMT5 inhibiting. How it is done: The PRMT5 inhibitory activity of test compounds was determined using the MTase-Glo™ assay (Promega), which monitors the product (S-adenosyl homocysteine or SAH) of methyltransferase reactions. The PRMT5 MTase-Glo assays were conducted in a 384-well white ProxiPlate (PerkinElmer, catalog no.: 6008280) in a total volume of 12 μL. The PRMT5 enzymatic reaction (in 4 μL) contained 50 nM PRMT5/MEP50 (Reaction Biology Corp, catalog no.: HMT-22-148), 25 μM S-adenosyl methionine (SAM, Promega), 5 μM Histone H4 peptide (1-21) (BPS Bioscience, catalog no.: 52018-2) and five-fold serially diluted compounds in a reaction buffer of 50 mM Tris (pH 8.0), 50 mM NaCl, 0.01% Tween 20, 0.01% BSA, and 1 mM DTT. The test compounds were pre-incubated with PRMT5/MEP50 and Histone H4 peptide for 20 minutes at room temperature before the addition of SAM to initiate the PRMT5 reaction. The reaction was allowed to proceed for 1 hour at 37° C. and was terminated by 2 μL of 3× MTase-Glo™ Reagent (Promega) and 150 μM EPZ015666 (Selleck, catalog no.: 1616391-65-1). After a 30-minute incubation at room temperature, 6 μL of MTase-Glo™ Detection Solution (Promega) was added and the plate was incubated at room temperature for an additional 30 minutes. The light signal corresponding to the amount of SAH produced by the PRMT5 reaction was subsequently measured using an Envision multimode reader (PerkinElmer). IC50 and Ki values were obtained by analyzing dose-response curves using GraphPad Prism.

Data set [2] concerns the target PRMT5/MEP50 complex (Homo sapiens (Human), UniProt O14744). The data set can be described thus: PRMT5/MEP50 HotSpot methyltransferase assay (with 100 nM MTA). It counts as biochemical. The conditions noted are these: histone H2A substrate, 1 μM 3H-SAM. How it is done: The assay used recombinant full-length histone H2A as the substrate of PRMT5. Enzymatic transfer of the tritiated methyl group from S-adenosyl-L-[methyl-3H]methionine (3H-SAM) to the histone H2A protein generated a radiolabeled histone H2A by measuring in a scintillation counter to determine the activity of PRMT5 enzyme in the presence and absence of compound. The assay reactions were conducted in the presence of 100 nM MTA. Briefly, compounds were solubilized in 100% DMSO at the highest concentration of 10 mM. […] Control samples lacking compound, PRTM5/MEP50 complex or various reaction components also were prepared and processed in parallel with compound test samples. SAH was used as a positive control for assay validation. To measure PRMT5 inhibitory activity, 1 nM PRTM5/MEP50 complex was preincubated with test compound in assay buffer containing 5 μM full-length histone H2A for 15 minutes at room temperature. The enzymatic reaction was initiated by adding 1 μM 3H-SAM (final concentration) and the mixture was incubated at 30° C. for 1 hour. The reaction was stopped and transferred to filter paper for detection. The amount of tritiated H2A in each sample was determined using a scintillation counter. The IC50 value for each compound was calculated from each 10-point dose-response curve for samples using GraphPad Prism software.

Data set [3] deals with HCT116 parental (wild type) cells. The data set can be described thus: HCT116 cell proliferation assay (CTG), parental cells. It counts as cell-based, human. The note with it: Cell Titer-Glo. How it is done:
(§1) Control samples were analyzed in parallel.
(§2) On Day 0, 150 HCT116 parental or HCT116 homozygous MTAP knockout cells were seeded in 96-well plates in McCoy's 5A medium containing 10% fetal bovine serum and pen/strep. And the cells were incubated overnight at 37° C. and 5% CO2.
(§3) On Day 1, cells were treated with 9-point serial dilution of compound, using a top concentration of 50 μM, 1:5 serial dilution steps and, a DMSO-only control. And cells were incubated for 6 days.
(§4) On Day 7, cell viability was measured using a CTG assay Kit (Cell Titer-Glo; Promega, catalog no.: G7573) in accordance with the manufacturer's instructions. Assays plates were read on a EnVision™ Multilabel Reader using the Ultra-Sensitive luminescence model. The data were analyzed by GraphPad Prism 5.0 software, and the dose-effect curve was obtained by fitting the data using nonlinear S-curve regression, from which the IC50 value was calculated.

The subject of data set [4] is HCT116 homozygous MTAP knockout cells. The data set can be described thus: HCT116 cell proliferation assay (CTG), MTAP knockout cells. It counts as cell-based, human. The conditions noted are these: Cell Titer-Glo. How it is done:
as §1, §2, §3, §4
For orientation: In ATP-based viability assays light output follows the ATP content of the culture.

For data set [5] the following is noted: rat, microsomes, 1 μM.
The nature of data set [6]: in vitro. The note with it: human, microsomes.
Data set [7] is described as follows: in vitro. The conditions noted are these: dog, microsomes.
A short description of data set [8]: in vitro. The conditions noted are these: cynomolgus monkey, microsomes.
Data set [9] is described as follows: Liver microsome metabolic stability (LMS) assay, human. The conditions noted are these: human, microsomes. For orientation: Liver microsomes are vesicles of endoplasmic reticulum, rich in cytochrome P450 enzymes.
In data set [10] the target is hERG potassium ion channel (Homo sapiens (Human), UniProt Q12809). Kind of data set: hERG potassium ion channel inhibition assay (automated patch-clamp, CHO-hERG cells). The note with it: Qpatch, highest test concentration 40.00 μM. The class given is cell-based. How it is done:
Drug-hERG interaction was measured by automated patch-clamp methods, with cisapride as positive control.
1.1 CHO-hERG cells were cultured in 175 cm^2 culture bottle. After the cell density grew to 60-80%, the culture medium was removed, washed with 7 mL of phosphate buffered saline (PBS), and then digested with 3 mL Detachin.
1.2 After the digestion was complete, 7 mL culture solution was added for neutralization, and then centrifuged, the clear solution was sucked, and 5 mL culture solution was added for re-suspension to ensure the cell density was 2˜5×10^6/mL.
The process of single-cell high-impedance sealing and whole-cell pattern formation was all automatically completed by Qpatch instrument. After obtaining whole-cell recording mode, the cell was pinching at −80 millivolts. Before giving a 5-second +40 millivolt depolarization stimulus, a 50-millisecond pre-voltage of −50 millivolts was given first, and then repolarized to −50 millivolts for 5 seconds. Go back to −80 millivolts. This voltage stimulation was applied every 15 seconds, recorded for 2 minutes, then extracellular fluid was given and recorded for 5 minutes, and then the administration process began. The concentration of test compound was given from the lowest test concentration for 2.5 minutes per test concentration. After continuous administration of all concentrations, the positive control 3 μM cisapride was given. At least 2 cells were tested for each concentration (n≥2).
4.1 The compound mother liquor was diluted with DMSO, and 10 μL compound stock solution was added to 20 μL DMSO solution, which was continuously 3-fold diluted to 6 DMSO-concentrations.
4.2 4 μL of test compounds in 6 DMSO-concentrations were added to 396 μL extracellular solution and were 100-fold diluted to 6 intermediate concentrations. Then, 80 μL of test compounds in 6 intermediate concentrations were added to 320 μL extracellular solution and were 5-fold diluted to the final concentration to be tested.
4.3 The highest test concentration was 40.00 μM, and six test concentrations were 40.00, 13.33, 4.44, 1.48, 0.49, 0.16 μM, respectively.
4.5 Entire dilution process for test compound preparation was performed by Bravo instrument.
The experimental data were analyzed by GraphPad Prism 5.0 software.
Background: Block of hERG is tested as a sign of cardiac risk.

Data set [11] is described as follows: In vivo pharmacokinetics assay in mice via IV and PO. On the set-up: species or system ICR mice. The conditions noted are these: for Cmax: read-out: Cmax; for AUC0-t: read-out: AUC0-t. How it is done: Pharmacokinetics assay for test compounds was performed in mice via IV and PO.
Test compound solution was prepared on the day of administration.
Solvent: IV+PO: 5% DMSO+10% Soultol+85% H2O or saline
Species: ICR mice; SPF level.
Source: Beijing Vital River Laboratory Animal Technology Co., Ltd.
Animal selection: Males. No random grouping
Weighed before dosing, calculated dosage according to body weight. For Groups 1-3, the drug was administered intravenously or intragastrically. For Group 4, the drug administered intragastrically.
For Groups 1-3, at 0.083 h, 0.25 h, 0.5 h, 1 h, 2 h, 4 h, 6 h, 8 h, 24 h, after administration. For Group 4, at 2 h and 4 h after administration.
Blood was collected through the cheeks. For each sample, about 0.05 mL of blood was collected and was added heparin sodium or EDTA-2K as anticoagulant, and was placed on wet ice.
The blood samples were collected and placed on ice and was centrifuged within 1 hour (centrifugation: 6000 g, 3 minutes, 2-8° C.) to separate plasma. Plasma samples were stored in a −80° C. refrigerator prior to analysis.
The pharmacokinetic parameters were calculated using Phoenix WinNonlin8.2.0 based on the blood concentration data at different time points, and AUC0-t, AUC0-∞, MRT0-∞, Cmax, Tmax, and T1/2 and mean values and standard deviations thereof were provided.

Data set [12] in a line: Liver microsome metabolic stability (LMS) assay, mouse.
The conditions of data set [13]: human, microsomes.
Setting [14] is: Homo sapiens, HCT-116, 6 days treatment.
Setting [15] is: male, ICR, mouse, plasma, PO 30 mg/kg.
The mark [16] stands for this setting: male, ICR, mouse, plasma, PO 50 mg/kg.

Chain of PRMT5/MEP50 complex (O14744 whole entry, species assumed): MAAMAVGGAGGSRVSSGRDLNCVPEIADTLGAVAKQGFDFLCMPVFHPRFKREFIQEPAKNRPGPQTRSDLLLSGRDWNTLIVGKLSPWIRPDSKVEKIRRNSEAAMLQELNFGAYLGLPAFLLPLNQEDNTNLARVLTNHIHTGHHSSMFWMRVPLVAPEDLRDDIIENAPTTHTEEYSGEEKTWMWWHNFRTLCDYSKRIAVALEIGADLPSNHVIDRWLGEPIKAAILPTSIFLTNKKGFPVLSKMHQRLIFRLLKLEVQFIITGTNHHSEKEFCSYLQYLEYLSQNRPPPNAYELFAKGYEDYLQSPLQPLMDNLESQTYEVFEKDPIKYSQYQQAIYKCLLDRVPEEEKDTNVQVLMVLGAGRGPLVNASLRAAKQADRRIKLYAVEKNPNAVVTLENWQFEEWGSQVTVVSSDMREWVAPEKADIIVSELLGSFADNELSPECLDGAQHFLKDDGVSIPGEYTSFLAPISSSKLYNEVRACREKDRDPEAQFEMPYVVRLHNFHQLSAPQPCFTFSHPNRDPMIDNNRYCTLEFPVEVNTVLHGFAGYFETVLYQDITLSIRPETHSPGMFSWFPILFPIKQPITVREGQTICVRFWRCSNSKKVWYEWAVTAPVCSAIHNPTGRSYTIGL
Chain of PRMT5/MEP50 complex (Q9BQA1 whole entry partner, species assumed): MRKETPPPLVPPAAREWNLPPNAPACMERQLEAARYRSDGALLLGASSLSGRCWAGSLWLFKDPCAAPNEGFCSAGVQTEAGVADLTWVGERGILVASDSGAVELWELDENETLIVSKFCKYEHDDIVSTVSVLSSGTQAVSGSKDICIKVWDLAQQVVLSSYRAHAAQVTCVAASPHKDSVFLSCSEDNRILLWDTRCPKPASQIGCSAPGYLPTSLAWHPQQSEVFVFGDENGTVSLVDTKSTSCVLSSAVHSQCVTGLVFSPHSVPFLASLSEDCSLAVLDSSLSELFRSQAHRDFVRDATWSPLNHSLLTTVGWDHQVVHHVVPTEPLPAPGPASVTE
Chain of PRMT5/MEP50 (O14744 whole entry): as the sequence (O14744 whole entry, species assumed) above
Chain of PRMT5/MEP50 (Q9BQA1 whole entry partner): as the sequence (Q9BQA1 whole entry partner, species assumed) above
Chain of hERG potassium ion channel (Q12809 whole entry): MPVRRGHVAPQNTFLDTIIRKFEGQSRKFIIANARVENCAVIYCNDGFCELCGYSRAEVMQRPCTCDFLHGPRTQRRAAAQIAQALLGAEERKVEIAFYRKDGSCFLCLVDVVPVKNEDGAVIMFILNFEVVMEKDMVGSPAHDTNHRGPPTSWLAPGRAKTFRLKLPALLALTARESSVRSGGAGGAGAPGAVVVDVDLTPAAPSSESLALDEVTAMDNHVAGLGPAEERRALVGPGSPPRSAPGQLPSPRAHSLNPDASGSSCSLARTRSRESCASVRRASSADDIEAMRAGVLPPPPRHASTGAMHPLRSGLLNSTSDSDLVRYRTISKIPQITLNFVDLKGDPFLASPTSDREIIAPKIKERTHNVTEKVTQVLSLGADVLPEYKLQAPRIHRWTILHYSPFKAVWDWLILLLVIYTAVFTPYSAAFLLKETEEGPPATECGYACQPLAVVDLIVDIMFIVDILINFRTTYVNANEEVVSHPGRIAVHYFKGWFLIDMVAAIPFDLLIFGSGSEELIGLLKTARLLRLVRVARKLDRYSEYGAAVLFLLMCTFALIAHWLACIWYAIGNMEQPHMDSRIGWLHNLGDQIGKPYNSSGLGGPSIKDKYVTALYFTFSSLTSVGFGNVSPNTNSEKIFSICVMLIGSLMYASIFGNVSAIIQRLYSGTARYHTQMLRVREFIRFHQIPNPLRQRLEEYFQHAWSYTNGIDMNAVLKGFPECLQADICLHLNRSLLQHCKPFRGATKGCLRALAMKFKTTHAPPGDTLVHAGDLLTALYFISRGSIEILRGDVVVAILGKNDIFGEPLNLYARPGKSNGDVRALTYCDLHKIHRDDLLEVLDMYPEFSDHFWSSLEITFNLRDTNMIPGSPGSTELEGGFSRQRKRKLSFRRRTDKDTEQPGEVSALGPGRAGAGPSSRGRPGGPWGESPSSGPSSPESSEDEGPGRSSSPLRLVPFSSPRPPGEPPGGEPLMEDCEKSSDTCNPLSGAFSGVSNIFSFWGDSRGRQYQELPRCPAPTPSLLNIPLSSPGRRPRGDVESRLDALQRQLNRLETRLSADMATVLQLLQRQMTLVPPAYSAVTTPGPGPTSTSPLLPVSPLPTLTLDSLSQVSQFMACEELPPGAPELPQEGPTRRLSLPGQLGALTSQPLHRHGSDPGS

Consider `Cc1nc(C)n2c1c(N)nc1ccc(C(=O)N(Cc3ccc(C(F)(F)F)cn3)[C@H](C)c3ncccn3)cc12` [Compound 9], for which the IC50 (commonly the concentration at which inhibition is half-maximal) in data set [1] is 0.101 µM; in data set [2], 0.321 µM; in [3] (6 days treatment), 1.16 µM; in [4] (6 days treatment) it was 0.072 µM.

On to `O=C(O)Cc1ccccc1Nc1c(Cl)cccc1Cl` [Ref. 5, Diclofenac], for which the “CLint (liver) R” value in data set [5] is 233.1 mL/min/kg. The figures for the half-life at 1 μM in data set [6], in data set [7] and in data set [8] were 0.112 h, more than 2.42 h and more than 2.42 h, respectively. Also, the values for the microsomal CLint at 1 μM in [6], in data set [7] and in [8] were 206 µL/min/mg, less than 9.6 µL/min/mg and less than 9.6 µL/min/mg, respectively. Also, the CLint scaled (commonly a measure of how fast metabolising enzymes remove a compound, apart from limits set by blood flow) at 1 μM in data set [7] was less than 13.8 mL/min/kg; in data set [8] it was less than 13 mL/min/kg; in data set [9] it was 185 mL/min/kg.

As for `Cc1ncn2c1c(N)nc1ccc(C(=O)N(Cc3ccc(C(F)(F)F)cn3)[C@H](C)c3ncccn3)cc12` [Compound 8], the IC50 in data set [1] was determined as 0.104 µM; in [2], 0.198 µM; in data set [3] (6 days treatment) it was 0.146 µM; in [4] (6 days treatment), 0.097 µM.

As to `CN(C(=O)c1cc2c(cn1)nc(N)c1cncn12)[C@@H]1COc2cc(C(F)(F)F)ccc21` [Compound 14], the IC50 in data set [1] turned out to be 0.047 µM; in data set [3] (setting [14]) it was 6.27 µM; in [4] (setting [14]), 0.07 µM; in [10] it was 17.9 µM. The C8 h in data set [11] (PO 30 mg/kg, plasma) is reported as 3833 ng/mL; in data set [11] (PO 50 mg/kg, plasma), 6927 ng/mL. Moreover, the C24 h in data set [11] (PO 30 mg/kg, plasma) is 574 ng/mL; in data set [11] (PO 50 mg/kg, plasma) it was 615 ng/mL. For the same molecule, the Cmax – broadly, the maximum level reached in the sampled fluid or tissue – in [11] (male, ICR, mouse, PO 30 mg/kg, plasma) worked out at 7500 ng/mL; in data set [11] (male, ICR, mouse, PO 50 mg/kg, plasma), 9920 ng/mL. The molecule further displayed a clearance in data set [11] (male, ICR, mouse, plasma, IV 1.0 mg/kg) of 7.62 mL/min/kg. Besides, the half-life (as a rule, the time needed for the level to fall by half in the phase considered) was 5.96 h in data set [11] (setting [15]) and 5 h in [11] (setting [16]). Also, the AUC0-t in data set [11] (setting [15]) stood at 81.1 µg·h/mL; in data set [11] (setting [16]) it was 123 µg·h/mL. Further, the half-life at 1 μM in data set [6] was more than 2.42 h; in data set [12] (mouse, liver microsomes) it was 2.2 h.

With `CN(C(=O)c1cc2c(cn1)nc(N)c1cncn12)[C@@H]1CC(F)(F)c2cc(C(F)(F)F)ccc21` [Compound 26], the IC50 stood at 0.034 µM in [1], 6.59 µM in [3] (6 days treatment), 0.064 µM in data set [4] (6 days treatment) and 13.6 µM in data set [10]. Further, the Cl in data set [11] (IV 1.0 mg/kg) worked out at 10.5 mL/min/kg. Also, the “T1/2 of LMS, H” value in [13] stood at 2.32 h. Besides, in [12] (mouse liver microsome 0.5 mg protein/mL, 1 μM, NADPH), the “T1/2 of LMS, M” value stood at 1.98 h.

Take `Cc1ncc2c(N)nc3ccc(C(=O)N(Cc4ccc(C(F)(F)F)cn4)[C@H](C)c4ncccn4)cc3n12` [Compound 7]: the IC50 in [1] came out at 0.091 µM; in data set [2], 0.091 µM; in data set [3] (6 days treatment), 0.961 µM; in [4] (6 days treatment), 0.077 µM.
